The NIST ThermoML archive (doi:10.1016/j.fluid.2014.11.020)
± gives the expanded uncertainty stated by the source.

Test: activity coefficient (dimensionless); of the first substance listed, at infinite dilution; xn = mol fraction of the nth substance listed
Details: Liquid, Chromatography, x1 = 0

| SMILES | activity coefficient (323.15 K) | activity coefficient (333.15 K) | activity coefficient (343.15 K) |
| --- | --- | --- | --- |
| CCC(=O)CC [pentan-3-one] + CN(C)c1cc[n+](COCCCOC[n+]2ccc(N(C)C)cc2)cc1.O=S(=O)([N-]S(=O)(=O)C(F)(F)F)C(F)(F)F.O=S(=O)([N-]S(=O)(=O)C(F)(F)F)C(F)(F)F | 0.67 ± 0.05 | 0.69 ± 0.05 | 0.7 ± 0.05 |
| C1CCCCC1 [cyclohexane] + CCCCCCCCn1cc[n+](COCCC)c1C.N#C[N-]C#N | 4.06 ± 0.28 | 3.85 ± 0.26 | 3.82 ± 0.26 |
| CCCC(C)=O [pentan-2-one] + Cn1cc[n+](COCCCOC[n+]2ccn(C)c2)c1.N#C[N-]C#N.N#C[N-]C#N | 3.5 ± 0.24 | 3.5 ± 0.24 | 3.49 ± 0.24 |
| CCC(=O)CC [pentan-3-one] + CCCOC[n+]1ccn(Cc2ccccc2)c1.N#C[N-]C#N | 1.33 ± 0.09 | 1.4 ± 0.09 | 1.43 ± 0.09 |
| C1CCCCC1 [cyclohexane] + CN(C)c1cc[n+](COCCCOC[n+]2ccc(N(C)C)cc2)cc1.O=S(=O)([N-]S(=O)(=O)C(F)(F)F)C(F)(F)F.O=S(=O)([N-]S(=O)(=O)C(F)(F)F)C(F)(F)F | 10.7 ± 0.73 | 9.32 ± 0.64 | 8.67 ± 0.59 |
| CCc1ccccc1 [ethylbenzene] + CCCCCCCCn1cc[n+](COCCC)c1C.N#C[N-]C#N | 1.48 ± 0.1 | 1.5 ± 0.1 | 1.54 ± 0.1 |
| CCCCCCCCCCCC [dodecane] + CCCOC[n+]1ccn(C)c1.F[B-](F)(F)F | 1160 ± 80 | 1160 ± 80 | 1150 ± 79 |
| CCO [ethanol] + CCCOC[n+]1ccc(N(C)C)cc1.O=S(=O)([N-]S(=O)(=O)C(F)(F)F)C(F)(F)F | 1.57 ± 0.1 | 1.47 ± 0.1 | 1.4 ± 0.09 |
| ClC(Cl)Cl [trichloromethane] + CCCCCCCCn1cc[n+](COCCCOC[n+]2ccn(CCCCCCCC)c2C)c1C.O=S(=O)([N-]S(=O)(=O)C(F)(F)F)C(F)(F)F.O=S(=O)([N-]S(=O)(=O)C(F)(F)F)C(F)(F)F | 0.39 ± 0.03 | 0.38 ± 0.03 | 0.39 ± 0.03 |
| CCCCCCCC [octane] + CCCOC[n+]1ccn(Cc2ccccc2)c1.N#C[N-]C#N | 70.1 ± 4.8 | 61.5 ± 4.2 | 57.8 ± 4 |
| CC1CCCC1 [methylcyclopentane] + CCCOC[n+]1ccc(N(C)C)cc1.O=S(=O)([N-]S(=O)(=O)C(F)(F)F)C(F)(F)F | 7.35 ± 0.5 | 7.22 ± 0.49 | 6.1 ± 0.42 |
| Cc1ccc(C)cc1 [1,4-dimethylbenzene] + Cn1cc[n+](COCCCOC[n+]2ccn(C)c2)c1.O=S(=O)([N-]S(=O)(=O)C(F)(F)F)C(F)(F)F.O=S(=O)([N-]S(=O)(=O)C(F)(F)F)C(F)(F)F | 2.39 ± 0.16 | 2.41 ± 0.16 | 2.34 ± 0.16 |
| CCCCCCC [heptane] + Cn1cc[n+](COCCCOC[n+]2ccn(C)c2)c1.O=S(=O)([N-]S(=O)(=O)C(F)(F)F)C(F)(F)F.O=S(=O)([N-]S(=O)(=O)C(F)(F)F)C(F)(F)F | 53 ± 3.6 | 34 ± 2.3 |  |
| CCO [ethanol] + Cn1cc[n+](COCCCOC[n+]2ccn(C)c2)c1.N#C[N-]C#N.N#C[N-]C#N | 0.78 ± 0.05 | 0.76 ± 0.05 | 0.72 ± 0.05 |
| C=CCCCC [hex-1-ene] + CCCOC[n+]1ccc(N(C)C)cc1.O=S(=O)([N-]S(=O)(=O)C(F)(F)F)C(F)(F)F | 6.62 ± 0.45 | 6.79 ± 0.46 | 5.24 ± 0.36 |
| c1ccccc1 [benzene] + CCCCCCCCn1cc[n+](COCCC)c1C.O=S(=O)([N-]S(=O)(=O)C(F)(F)F)C(F)(F)F | 0.6 ± 0.04 | 0.59 ± 0.04 | 0.59 ± 0.04 |
| Cc1ccccc1 [toluene] + CCCOC[n+]1ccn(C)c1.O=S(=O)([N-]S(=O)(=O)C(F)(F)F)C(F)(F)F | 1.7 ± 0.11 | 1.68 ± 0.11 | 1.69 ± 0.11 |
| ClC(Cl)Cl [trichloromethane] + CCCOC[n+]1ccn(Cc2ccccc2)c1.O=S(=O)([N-]S(=O)(=O)C(F)(F)F)C(F)(F)F | 0.73 ± 0.05 | 0.65 ± 0.04 | 0.66 ± 0.05 |
| CCC(C)CC [3-methylpentane] + CCCCCCCCn1cc[n+](COCCC)c1C.N#C[N-]C#N | 6.65 ± 0.45 | 5.7 ± 0.39 | 6.25 ± 0.43 |
| C#CCCCC [1-hexyne] + Cn1cc[n+](COCCCOC[n+]2ccn(C)c2)c1.O=S(=O)([N-]S(=O)(=O)C(F)(F)F)C(F)(F)F.O=S(=O)([N-]S(=O)(=O)C(F)(F)F)C(F)(F)F | 3.81 ± 0.26 | 3.68 ± 0.25 | 3.4 ± 0.23 |
| CCc1ccccc1 [ethylbenzene] + CCCOC[n+]1ccn(Cc2ccccc2)c1.O=S(=O)([N-]S(=O)(=O)C(F)(F)F)C(F)(F)F | 1.5 ± 0.1 | 1.33 ± 0.09 | 1.32 ± 0.09 |
| CCC(C)=O [butanone] + CCCOC[n+]1ccn(Cc2ccccc2)c1.O=S(=O)([N-]S(=O)(=O)C(F)(F)F)C(F)(F)F | 0.32 ± 0.03 | 0.26 ± 0.03 | 0.22 ± 0.03 |
